Read-outs that look alike come from different tables or passages of the source.
What was measured:
[1] = biological target: T1, HCV NS5B polymerase 1a-H77 (Hepatitis C virus genotype 1a, UniProt P27958); assay: biochemical; design: species or system HCV genotype 1a
T1 construct: six-histidine tag; made in house; host or cells: E. coli
How it was run: (§1)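 E. coli-expressed NS5B (residues 1-570, His-tagged) transcribed a 2.1 kb HCV 1b negative-strand 3′-end RNA template (5 nM) with 20 μM CTP, 20 μM ATP and 0.284 μM [3H]UTP for 3 h at 30° C. Spermine-precipitated RNA was filter-captured and counted by scintillation; IC50 from nonlinear regression.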

[2] = biological target: T2, HCV NS5B polymerase 1a-H77-C316Y (Hepatitis C virus genotype 1a, UniProt P27958, C2736Y); assay: biochemical; design: species or system HCV genotype 1a
T2 construct: six-histidine tag; made in house; host or cells: E. coli
How it was run: as §1

[3] = system: HCV NS5B polymerase 1a-H77-C316Y; assay: biochemical; design: species or system HCV genotype 1a; conditions: ratio of enzyme IC50s, 1a H77-C316Y / 1a H77
How it was run: as §1

[4] = biological target: T3, HCV NS5B polymerase 1b BK strain (Hepatitis C virus genotype 1b, UniProt P26663); assay: HCV NS5B polymerase enzymatic inhibition assay, strain 1b BK; assay type: biochemical
T3 construct: six-histidine tag; made in house; host or cells: E. coli
How it was run: as §1

[5] = system: HCV 1a-H77 subgenomic replicon; assay: microbe, parasite or virus in culture; assay type: cell-based, HCV genotype 1a; conditions: Hepatitis C virus
[6] = system: HCV 1b-BB7 subgenomic replicon; assay: microbe, parasite or virus in culture; assay type: cell-based, HCV genotype 1b; conditions: Hepatitis C virus
[7] = system: chimeric replicon with 2a-J6CF-derived NS5B; assay: microbe, parasite or virus in culture; assay type: cell-based, HCV genotype 2a; conditions: Hepatitis C virus, read-out: 2a chimera 5% FBS EC50
[8] = system: chimeric replicon with genotype 2b NS5B; assay: microbe, parasite or virus in culture; assay type: cell-based, HCV genotype 2b; conditions: Hepatitis C virus, read-out: 2b chimera 5% FBS EC50
[9] = system: chimeric replicon with genotype 3a NS5B; assay: microbe, parasite or virus in culture; assay type: cell-based, HCV genotype 3a; conditions: Hepatitis C virus, read-out: 3a chimera 5% FBS EC50
[10] = system: chimeric replicon with genotype 4a NS5B; assay: microbe, parasite or virus in culture; assay type: cell-based, HCV genotype 4a; conditions: Hepatitis C virus, read-out: 4a chimera 5% FBS EC50
[11] = system: HCV 1a-H77 transient subgenomic replicon in Huh-7 derived cell line; assay: microbe, parasite or virus in culture; assay type: cell-based, HCV genotype 1a; conditions: Hepatitis C virus
How it was run: (§2)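 Transient format: T7-transcribed replicon RNA lacking Neo, electroporated into Huh-7-derived cells (5×10^3/well), input RNA checked by luciferase at 4 h. Three-fold compound dilution series, 0.5% DMSO, 4 days at 37° C; EC50 from luciferase signal in lysed cells.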

[12] = system: HCV 1a-H77-C316Y transient subgenomic replicon in Huh-7 derived cell line; assay: microbe, parasite or virus in culture; assay type: cell-based, HCV genotype 1a; conditions: for EC50: Hepatitis C virus, Huh-7, read-out: Transient Replicon 1a H77-C316Y 5% FBS EC50; for Transient Replicon Fold Resistance C316Y/1a: ratio of transient replicon EC50s, C316Y / 1a H77
How it was run: as §2

[13] = enzyme, strain 1a H77, read-out: HCV Polymerase Strain 1a H77 IC50
[14] = enzyme, strain 1b BK, read-out: HCV Polymerase Strain 1b BK IC50
[15] = stable replicon, 5% FBS, absence of human plasma, read-out: Stable Replicon 1a H77 5% FBS EC50
[16] = stable replicon, strain 1a H77, 5% FBS + 40% human plasma, read-out: 1a H77 5% FBS + 40% Human Plasma EC50
[17] = stable replicon, strain 1a H77, 5% FBS, no human plasma, read-out: 1a H77 5% FBS EC50
[18] = stable replicon, strain 1a H77, 5% FBS, read-out: 1a H77 5% FBS EC50
[19] = stable replicon, strain 1b BB7, 5% FBS + 40% human plasma, read-out: 1b BB7 5% FBS + 40% Human Plasma EC50
[20] = stable replicon, strain 1b BB7, 5% FBS, no human plasma, read-out: 1b BB7 5% FBS EC50
[21] = stable replicon, strain 1b BB7, 5% FBS, read-out: 1b BB7 5% FBS EC50
[22] = Huh-7, transient replicon, 5% FBS, read-out: Transient Replicon 1a H77 5% FBS EC50

T3 sequence (P26663 2420-2989): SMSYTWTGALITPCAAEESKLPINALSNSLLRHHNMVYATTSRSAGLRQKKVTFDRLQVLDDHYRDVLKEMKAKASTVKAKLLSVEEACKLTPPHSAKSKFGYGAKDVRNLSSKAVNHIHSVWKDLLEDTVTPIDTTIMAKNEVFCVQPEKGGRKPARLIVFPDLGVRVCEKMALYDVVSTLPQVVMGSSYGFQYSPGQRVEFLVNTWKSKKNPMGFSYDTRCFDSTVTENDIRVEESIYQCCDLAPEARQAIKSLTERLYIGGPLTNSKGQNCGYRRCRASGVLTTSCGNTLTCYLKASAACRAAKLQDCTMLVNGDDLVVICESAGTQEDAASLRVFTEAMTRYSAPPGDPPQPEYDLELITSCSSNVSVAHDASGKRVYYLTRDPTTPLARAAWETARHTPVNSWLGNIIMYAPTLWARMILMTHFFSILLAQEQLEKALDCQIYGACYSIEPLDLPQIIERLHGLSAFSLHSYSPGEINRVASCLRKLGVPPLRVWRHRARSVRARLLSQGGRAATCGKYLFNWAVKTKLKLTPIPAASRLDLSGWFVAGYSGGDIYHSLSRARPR
T2 sequence (P27958 2421-2990 C2736Y): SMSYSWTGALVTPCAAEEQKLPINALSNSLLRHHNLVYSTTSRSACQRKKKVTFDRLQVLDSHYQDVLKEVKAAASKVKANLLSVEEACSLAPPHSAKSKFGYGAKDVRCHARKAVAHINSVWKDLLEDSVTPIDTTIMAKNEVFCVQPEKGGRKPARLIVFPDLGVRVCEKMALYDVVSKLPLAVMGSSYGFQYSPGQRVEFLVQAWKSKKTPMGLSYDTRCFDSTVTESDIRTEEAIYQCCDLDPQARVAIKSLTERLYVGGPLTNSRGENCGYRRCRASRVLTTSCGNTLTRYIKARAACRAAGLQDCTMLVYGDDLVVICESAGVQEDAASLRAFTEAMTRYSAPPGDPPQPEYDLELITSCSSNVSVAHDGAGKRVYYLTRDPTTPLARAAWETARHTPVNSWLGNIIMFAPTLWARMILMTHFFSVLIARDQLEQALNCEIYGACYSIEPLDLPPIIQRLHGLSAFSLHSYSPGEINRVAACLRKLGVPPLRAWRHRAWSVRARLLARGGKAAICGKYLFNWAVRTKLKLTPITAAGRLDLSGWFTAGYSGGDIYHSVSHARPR
T1 sequence (P27958 2421-2990): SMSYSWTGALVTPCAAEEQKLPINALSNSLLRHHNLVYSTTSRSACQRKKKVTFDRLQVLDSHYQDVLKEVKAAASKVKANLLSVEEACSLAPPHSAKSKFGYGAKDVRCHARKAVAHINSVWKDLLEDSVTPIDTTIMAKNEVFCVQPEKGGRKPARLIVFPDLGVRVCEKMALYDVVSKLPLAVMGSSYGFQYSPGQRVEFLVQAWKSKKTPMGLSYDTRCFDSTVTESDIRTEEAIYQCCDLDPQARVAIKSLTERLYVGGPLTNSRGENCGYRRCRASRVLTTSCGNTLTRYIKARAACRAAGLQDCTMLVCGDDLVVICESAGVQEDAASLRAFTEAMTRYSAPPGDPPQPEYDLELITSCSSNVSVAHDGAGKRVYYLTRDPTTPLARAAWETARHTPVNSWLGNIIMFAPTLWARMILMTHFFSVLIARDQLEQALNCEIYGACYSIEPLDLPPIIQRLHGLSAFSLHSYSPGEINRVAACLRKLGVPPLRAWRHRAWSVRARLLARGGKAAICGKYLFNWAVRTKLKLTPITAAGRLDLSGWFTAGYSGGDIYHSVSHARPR

| SMILES | IC50 [1, 13] [nM] | IC50 [2] [nM] | C316Y/1a Fold Resistance [3] [fold] | IC50 [4, 14] [nM] | EC50 [5, 15] [nM] | EC50 [5, 16] [nM] | EC50 [5, 17] [nM] | EC50 [5, 18] [nM] | EC50 [6, 19] [nM] | EC50 [6, 20] [nM] | EC50 [6, 21] [nM] | EC50 [7] [nM] | EC50 [8] [nM] | EC50 [9] [nM] | EC50 [10] [nM] | EC50 [11, 22] [nM] | EC50 [12] [nM] | Transient Replicon Fold Resistance C316Y/1a [12] [fold] | other results |
| --- | --- | --- | --- | --- | --- | --- | --- | --- | --- | --- | --- | --- | --- | --- | --- | --- | --- | --- | --- |
| CS(=O)(=O)N(CCCC#N)c1cc2oc(-c3ccc(F)cc3)c(-c3ncc[nH]3)c2cc1C1CC1 [Example 49, N-(3-cyanopropyl)-N-[5-cyclopropyl-2-(4-fluorophenyl)-3-(1H-imidazol-2-yl)-1-benzofuran-6-yl]methanesulfonamide] | 5 | 52 | 10 | 17 | 3.7 | 53.9 | 3.7 | 3.7 | 28.1 | 3 | 3 | 22.4 | 41.5 | 3.7 | 33.9 | 2.2 | 76.8 | 35 | – |
| CCOC(=O)CCCCN(c1cc2oc(-c3ccc(F)cc3)c(-c3ncc[nH]3)c2cc1C1CC1)S(C)(=O)=O [Example 50, ethyl 5-{[5-cyclopropyl-2-(4-fluorophenyl)-3-(1H-imidazol-2-yl)-1-benzofuran-6-yl](methylsulfonyl)amino}pentanoate] | 3.9 | 104 | 27 | 12 | 12.2 | 97 | 12.2 | 12.2 | 67 | 8.7 | 8.7 | 90.7 | 147 | 15.3 | 149 | 9.5 | 169 | 18 | – |
| CS(=O)(=O)N(CCC1CCS(=O)(=O)C1)c1cc2oc(-c3ccc(F)cc3)c(-c3ncc[nH]3)c2cc1C1CC1 (stereo not shown) [Example 61, N-[5-cyclopropyl-2-(4-fluorophenyl)-3-(1H-imidazol-2-yl)-1-benzofuran-6-yl]-N-[2-(1,1-dioxidotetrahydrothiophen-3-yl)ethyl]methanesulfonamide] | – | 76 | 9 | – | – | – | – | – | – | – | – | 41 | 29.9 | 6.2 | 18.4 | – | 45.8 | 13 | IC50 [1]: 8.9 nM; IC50 [4]: 16 nM; EC50 ([5]; read-out: 1a H77 5% FBS + 40% Human Plasma EC50): 72.2 nM; EC50 ([5]; read-out: 1a H77 5% FBS EC50): 5.4 nM; EC50 ([5]; read-out: Stable Replicon 1a H77 5% FBS EC50): 5.4 nM; EC50 ([6]; read-out: 1b BB7 5% FBS + 40% Human Plasma EC50): 18.4 nM; EC50 ([6]; read-out: 1b BB7 5% FBS EC50): 3 nM; EC50 ([11]; Huh-7, read-out: Transient Replicon 1a H77 5% FBS EC50): 3.6 nM |
| Cc1ccc(C)n1-c1nc(CCCN(c2cc3oc(-c4ccc(F)cc4)c(-c4ncc[nH]4)c3cc2C2CC2)S(C)(=O)=O)cs1 [Example 62, N-[5-cyclopropyl-2-(4-fluorophenyl)-3-(1H-imidazol-2-yl)-1-benzofuran-6-yl]-N-{3-[2-(2,5-dimethyl-1H-pyrrol-1-yl)-1,3-thiazol-4-yl]propyl}methanesulfonamide] | 3.9 | 250 | 65 | 14 | 88.7 | 342 | 88.7 | 88.7 | 328 | 71 | 71 | 309 | 471 | 49.9 | 364 | 60.6 | 899 | 15 | – |
| CS(=O)(=O)N(CC#N)c1cc2oc(-c3ccc(F)cc3)c(-c3ncc[nH]3)c2cc1C1CC1 [Example 63, N-(cyanomethyl)-N-[5-cyclopropyl-2-(4-fluorophenyl)-3-(1H-imidazol-2-yl)-1-benzofuran-6-yl]methanesulfonamide] | 4.5 | 2100 | 470 | 47 | 67 | 1160 | 67 | 67 | 195 | 14.4 | 14.4 | 131 | 108 | 6.8 | 702 | 75.6 | 1900 | 25 | – |
| CS(=O)(=O)N(CCCO)c1cc2oc(-c3ccc(F)cc3)c(-c3ncc[nH]3)c2cc1C1CC1 [Example 65, N-[5-cyclopropyl-2-(4-fluorophenyl)-3-(1H-imidazol-2-yl)-1-benzofuran-6-yl]-N-(3-hydroxypropyl)methanesulfonamide] | 6.9 | 166 | 24 | 52 | 10.3 | 121 | 10.3 | 10.3 | 59.5 | 6.8 | 6.8 | 42.4 | 68.5 | 4 | 87.5 | 5.4 | 228 | 42 | – |
| CS(=O)(=O)N(CCCS(N)(=O)=O)c1cc2oc(-c3ccc(F)cc3)c(-c3ncc[nH]3)c2cc1C1CC1 [Example 80, 3-{[5-cyclopropyl-2-(4-fluorophenyl)-3-(1H-imidazol-2-yl)-1-benzofuran-6-yl](methylsulfonyl)amino}propane-1-sulfonamide] | 5 | 55 | 11 | 16 | 12.1 | 52 | 12.1 | 12.1 | 72 | 10.7 | 10.7 | 211 | 283 | 12.2 | 373 | 8.3 | 162 | 20 | – |
| CS(=O)(=O)N(CCCCF)c1cc2oc(-c3ccc(F)cc3)c(-c3ncc[nH]3)c2cc1C1CC1 [Example 83, N-[5-cyclopropyl-2-(4-fluorophenyl)-3-(1H-imidazol-2-yl)-1-benzofuran-6-yl]-N-(4-fluorobutyl)methanesulfonamide] | 5.5 | 79 | 14 | 26 | 6.9 | 89 | 6.9 | 6.9 | 96 | 8.19 | 8.2 | 46.7 | 47.3 | 6.1 | 67.3 | 6 | 128 | 21 | – |
